Experimental data taken from PubChem BioAssay AID2060889 (Molecular Pharmacology Branch, DTP, NCI, 2025).
Blank lines part the entries; values can stand above or below the compound they belong to.

Test system: LG0567-F671-PDC complex spheroids viability
Experiment: Anticancer human tumor LG0567-F671-PDC patient-derived lung adenocarcinoma cell line growth inhibition [RAS]
Conditions: for IC50: curve of first compound; for viability, T/C: stronger effect = lower value
Outline: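 Multi-cell-type spheroids: tumor cells plus HUVEC endothelial cells and mesenchymal stem cells. RAS-pathway inhibitors were combined with targeted agents, each dosed in half-log steps down from clinical Cmax, or from 10 microM when Cmax was unknown.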

[1] = second compound 0.000949 µM, first compound 0.0316 µM
[2] = second compound 0.000949 µM, first compound 0.1 µM
[3] = second compound 0.000949 µM, first compound 0.316 µM
[4] = second compound 0.000949 µM, first compound 1 µM
[5] = second compound 0.003 µM, first compound 0.0316 µM
[6] = second compound 0.003 µM, first compound 0.1 µM
[7] = second compound 0.003 µM, first compound 0.316 µM
[8] = second compound 0.003 µM, first compound 1 µM
[9] = second compound 0.00949 µM, first compound 0.0316 µM
[10] = second compound 0.00949 µM, first compound 0.1 µM
[11] = second compound 0.00949 µM, first compound 0.316 µM
[12] = second compound 0.00949 µM, first compound 1 µM
[13] = second compound 0.03 µM, first compound 0.0316 µM
[14] = second compound 0.03 µM, first compound 0.1 µM
[15] = second compound 0.03 µM, first compound 0.316 µM
[16] = second compound 0.03 µM, first compound 1 µM
[17] = second compound 0.0949 µM, first compound 0.0316 µM
[18] = second compound 0.0949 µM, first compound 0.1 µM
[19] = second compound 0.0949 µM, first compound 0.316 µM
[20] = second compound 0.0949 µM, first compound 1 µM
[21] = second compound 0.3 µM, first compound 0.0316 µM
[22] = second compound 0.3 µM, first compound 0.1 µM
[23] = second compound 0.3 µM, first compound 0.316 µM
[24] = second compound 0.3 µM, first compound 1 µM
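Also: spheroids exposed to compound for seven days before readout.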
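For IC50 in this document: luminescence signal used as a proxy for viable cells.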

IC50 (second compound 0.00316 µM): < 31.6 nM
IC50 (second compound 0.01 µM): < 31.6 nM
IC50 (second compound 0.0316 µM): < 31.6 nM
IC50 (second compound 0.1 µM): < 31.6 nM
IC50 (second compound 0.316 µM): < 31.6 nM
IC50 (second compound 1 µM): < 31.6 nM
Structure (SMILES): NC1c2ccccc2OC12CCN(c1cnc3c(N4CCCc5ncccc54)n[nH]c3n1)CC2 (stereo unspecified) + C=CC(=O)N1CCN(c2nc(OCC3CCCN3C)nc3c(F)c(-c4nc(N)cc(C)c4C(F)(F)F)c(Cl)cc23)C(C)C1
viability, T/C (second compound 0.00316 µM, first compound 0.0316 µM): 6.27%
viability, T/C (second compound 0.00316 µM, first compound 0.1 µM): 4.36%
viability, T/C (second compound 0.00316 µM, first compound 0.316 µM): 3.09%
viability, T/C (second compound 0.00316 µM, first compound 1 µM): 2.99%
viability, T/C (second compound 0.00316 µM, first compound 3.16 µM): 2.79%
viability, T/C (second compound 0.00316 µM, first compound 10 µM): 3.28%
viability, T/C (second compound 0.01 µM, first compound 0.0316 µM): 5.37%
viability, T/C (second compound 0.01 µM, first compound 0.1 µM): 3.73%
viability, T/C (second compound 0.01 µM, first compound 0.316 µM): 2.99%
viability, T/C (second compound 0.01 µM, first compound 1 µM): 2.89%
viability, T/C (second compound 0.01 µM, first compound 3.16 µM): 2.44%
viability, T/C (second compound 0.01 µM, first compound 10 µM): 2.64%
viability, T/C (second compound 0.0316 µM, first compound 0.0316 µM): 4.86%
viability, T/C (second compound 0.0316 µM, first compound 0.1 µM): 3.54%
viability, T/C (second compound 0.0316 µM, first compound 0.316 µM): 3.04%
viability, T/C (second compound 0.0316 µM, first compound 1 µM): 3.15%
viability, T/C (second compound 0.0316 µM, first compound 3.16 µM): 2.61%
viability, T/C (second compound 0.0316 µM, first compound 10 µM): 3.04%
viability, T/C (second compound 0.1 µM, first compound 0.0316 µM): 5.91%
viability, T/C (second compound 0.1 µM, first compound 0.1 µM): 4.17%
viability, T/C (second compound 0.1 µM, first compound 0.316 µM): 2.81%
viability, T/C (second compound 0.1 µM, first compound 1 µM): 2.78%
viability, T/C (second compound 0.1 µM, first compound 3.16 µM): 3%
viability, T/C (second compound 0.1 µM, first compound 10 µM): 2.64%
viability, T/C (second compound 0.316 µM, first compound 0.0316 µM): 5.55%
viability, T/C (second compound 0.316 µM, first compound 0.1 µM): 3.15%
viability, T/C (second compound 0.316 µM, first compound 0.316 µM): 3.61%
viability, T/C (second compound 0.316 µM, first compound 1 µM): 3.03%
viability, T/C (second compound 0.316 µM, first compound 3.16 µM): 2.75%
viability, T/C (second compound 0.316 µM, first compound 10 µM): 2.78%
viability, T/C (second compound 1 µM, first compound 0.0316 µM): 5.5%
viability, T/C (second compound 1 µM, first compound 0.1 µM): 4.65%
viability, T/C (second compound 1 µM, first compound 0.316 µM): 3.58%
viability, T/C (second compound 1 µM, first compound 1 µM): 3.3%
viability, T/C (second compound 1 µM, first compound 3.16 µM): 3.79%
viability, T/C (second compound 1 µM, first compound 10 µM): 3.5%

IC50 (second compound 0.000949 µM): < 3.16 nM
IC50 (second compound 0.003 µM): < 3.16 nM
IC50 (second compound 0.00949 µM): < 3.16 nM
IC50 (second compound 0.03 µM): < 3.16 nM
IC50 (second compound 0.0949 µM): < 3.16 nM
IC50 (second compound 0.3 µM): < 3.16 nM
Structure (SMILES): C=CC(=O)Nc1cc(Nc2nccc(-c3cn(C)c4ccccc34)n2)c(OC)cc1N(C)CCN(C)C + CCn1c(-c2cc(N3CCN(C)CC3)cnc2C(C)OC)c2c3cc(ccc31)-c1csc(n1)CC(NC(=O)C1CC1C)C(=O)N1CCCC(N1)C(=O)OCC(C)(C)C2
viability, T/C (second compound 0.000949 µM, first compound 0.00316 µM): 24.1%
viability, T/C (second compound 0.000949 µM, first compound 0.01 µM): 19.9%
viability, T/C [1]: 17.7%
viability, T/C [2]: 11.7%
viability, T/C [3]: 5.93%
viability, T/C [4]: 2.95%
viability, T/C (second compound 0.003 µM, first compound 0.00316 µM): 11.5%
viability, T/C (second compound 0.003 µM, first compound 0.01 µM): 10.2%
viability, T/C [5]: 8.59%
viability, T/C [6]: 4.71%
viability, T/C [7]: 3.14%
viability, T/C [8]: 1.73%
viability, T/C (second compound 0.00949 µM, first compound 0.00316 µM): 6.67%
viability, T/C (second compound 0.00949 µM, first compound 0.01 µM): 6.47%
viability, T/C [9]: 4.89%
viability, T/C [10]: 3.67%
viability, T/C [11]: 1.84%
viability, T/C [12]: 1.07%
viability, T/C (second compound 0.03 µM, first compound 0.00316 µM): 3.85%
viability, T/C (second compound 0.03 µM, first compound 0.01 µM): 3.87%
viability, T/C [13]: 11.8%
viability, T/C [14]: 2.59%
viability, T/C [15]: 1.49%
viability, T/C [16]: 0.76%
viability, T/C (second compound 0.0949 µM, first compound 0.00316 µM): 3.44%
viability, T/C (second compound 0.0949 µM, first compound 0.01 µM): 2.65%
viability, T/C [17]: 2.81%
viability, T/C [18]: 2.03%
viability, T/C [19]: 1.32%
viability, T/C [20]: 0.84%
viability, T/C (second compound 0.3 µM, first compound 0.00316 µM): 2.71%
viability, T/C (second compound 0.3 µM, first compound 0.01 µM): 2.18%
viability, T/C [21]: 2.37%
viability, T/C [22]: 1.85%
viability, T/C [23]: 1.11%
viability, T/C [24]: 0.63%

IC50 (second compound 0.000949 µM): < 31.6 nM
IC50 (second compound 0.003 µM): < 31.6 nM
IC50 (second compound 0.00949 µM): < 31.6 nM
IC50 (second compound 0.03 µM): < 31.6 nM
IC50 (second compound 0.0949 µM): < 31.6 nM
IC50 (second compound 0.3 µM): < 31.6 nM
Structure (SMILES): NC1c2ccccc2OC12CCN(c1cnc3c(N4CCCc5ncccc54)n[nH]c3n1)CC2 (stereo unspecified) + CCn1c(-c2cccnc2C(C)OC)c2c3cc(ccc31)N1CCOC(CC(NC(=O)C(C(C)C)N(C)C(=O)C3(F)CCN(C(=O)C#CC(C)(C)N(C)C)CC3)C(=O)N3CCCC(N3)C(=O)OCC(C)(C)C2)C1
viability, T/C [1]: 4.75%
viability, T/C [2]: 4.54%
viability, T/C [3]: 2.82%
viability, T/C [4]: 2.6%
viability, T/C (second compound 0.000949 µM, first compound 3.16 µM): 3.24%
viability, T/C (second compound 0.000949 µM, first compound 10 µM): 2.18%
viability, T/C [5]: 5.7%
viability, T/C [6]: 4.2%
viability, T/C [7]: 3.08%
viability, T/C [8]: 2.79%
viability, T/C (second compound 0.003 µM, first compound 3.16 µM): 2.89%
viability, T/C (second compound 0.003 µM, first compound 10 µM): 3%
viability, T/C [9]: 6.21%
viability, T/C [10]: 3.69%
viability, T/C [11]: 3.15%
viability, T/C [12]: 2.2%
viability, T/C (second compound 0.00949 µM, first compound 3.16 µM): 1.99%
viability, T/C (second compound 0.00949 µM, first compound 10 µM): 1.74%
viability, T/C [13]: 4.82%
viability, T/C [14]: 4.27%
viability, T/C [15]: 2.5%
viability, T/C [16]: 1.95%
viability, T/C (second compound 0.03 µM, first compound 3.16 µM): 1.88%
viability, T/C (second compound 0.03 µM, first compound 10 µM): 2.47%
viability, T/C [17]: 4.25%
viability, T/C [18]: 3.02%
viability, T/C [19]: 2.73%
viability, T/C [20]: 1.84%
viability, T/C (second compound 0.0949 µM, first compound 3.16 µM): 1.66%
viability, T/C (second compound 0.0949 µM, first compound 10 µM): 1.44%
viability, T/C [21]: 3.31%
viability, T/C [22]: 2.55%
viability, T/C [23]: 1.71%
viability, T/C [24]: 1.65%
viability, T/C (second compound 0.3 µM, first compound 3.16 µM): 1.27%
viability, T/C (second compound 0.3 µM, first compound 10 µM): 2.62%
